One experiment relates to A-10 cells. Description: Microtubule depolymerization, cell-based phenotypic assay in A-10 cells.
A further experiment concerns KB (RFC/FRα/PCFT). Description: Growth inhibition of KB tumor cells. Type of experiment: cell-based, human. How it is done:
Cell proliferation was assayed with CellTiter-Blue™ with a fluorescent plate reader.

The test system of a further experiment is PC43-10 (RFC). Description: Proliferation inhibition, RFC-expressing PC43-10 cells. The note with it: Table 11. Type of experiment: cell-based, Chinese hamster. An excerpt:
(§1) AGF215, AGF234 and AGF263 were compared to AGF23 as inhibitors of proliferation of engineered Chinese hamster ovary (CHO) cells expressing human PCFT (R2/PCFT4), FRα (RT16), or RFC (PC43-10).

A further experiment has as its system RT16 (FRα). Description: Proliferation inhibition, FRα-expressing RT16 cells. Type of experiment: cell-based, Chinese hamster.
Description: as §1

Another experiment has as its system Parental SK-OV-3. Description: Antiproliferative activity, parental SK-OV-3. The experiment is classed as cell-based. To be noted: Homo sapiens, Table 6, read-out: IC50 ± SD Parental SK-OV-3.
The test system of experiment [1] is Pgp expressing SK-OV-3 MDR1-6-6. The experiment can be described thus: Antiproliferative activity, Pgp expressing SK-OV-3 MDR1-6-6. The experiment is classed as cell-based. The note with it: Homo sapiens, SK-OV-3; Table 6; read-out: IC50 ± SD Pgp expressing SK-OV-3 MDR1-6-6.
The next experiment concerns Parental HeLa. Description: Antiproliferative activity, parental HeLa. Type of experiment: cell-based. To be noted: Homo sapiens, Table 7, read-out: IC50 ± SD Parental HeLa. An excerpt:
(§2) Another clinically relevant drug resistance mechanism of tubulin-targeting agents is the overexpression of the βIII isotype of tubulin.

For experiment [2], the system named is β-III overexpressing HeLa. Description: Antiproliferative activity, β-III overexpressing HeLa. Type of experiment: cell-based.
Description: as §2

The subject of another experiment is MDA-MB-435 cancer cells. Description: Antiproliferative effect in MDA-MB-435 cancer cells (SRB assay). The experiment is classed as cell-based. To be noted: Table 3a, read-out: IC50 ± SD in MDA-435 Cells. For orientation: The SRB assay estimates cell density from bound dye.
For another experiment, the target named is VEGFR2 (Homo sapiens, UniProt P35968). The experiment can be described thus: Kinase inhibition, whole-cell assay, VEGFR2 (Flk-1). The experiment is classed as cell-based. To be noted: Table 3b; unit inferred.
Sequence of VEGFR2 (P35968 20-1356, species assumed): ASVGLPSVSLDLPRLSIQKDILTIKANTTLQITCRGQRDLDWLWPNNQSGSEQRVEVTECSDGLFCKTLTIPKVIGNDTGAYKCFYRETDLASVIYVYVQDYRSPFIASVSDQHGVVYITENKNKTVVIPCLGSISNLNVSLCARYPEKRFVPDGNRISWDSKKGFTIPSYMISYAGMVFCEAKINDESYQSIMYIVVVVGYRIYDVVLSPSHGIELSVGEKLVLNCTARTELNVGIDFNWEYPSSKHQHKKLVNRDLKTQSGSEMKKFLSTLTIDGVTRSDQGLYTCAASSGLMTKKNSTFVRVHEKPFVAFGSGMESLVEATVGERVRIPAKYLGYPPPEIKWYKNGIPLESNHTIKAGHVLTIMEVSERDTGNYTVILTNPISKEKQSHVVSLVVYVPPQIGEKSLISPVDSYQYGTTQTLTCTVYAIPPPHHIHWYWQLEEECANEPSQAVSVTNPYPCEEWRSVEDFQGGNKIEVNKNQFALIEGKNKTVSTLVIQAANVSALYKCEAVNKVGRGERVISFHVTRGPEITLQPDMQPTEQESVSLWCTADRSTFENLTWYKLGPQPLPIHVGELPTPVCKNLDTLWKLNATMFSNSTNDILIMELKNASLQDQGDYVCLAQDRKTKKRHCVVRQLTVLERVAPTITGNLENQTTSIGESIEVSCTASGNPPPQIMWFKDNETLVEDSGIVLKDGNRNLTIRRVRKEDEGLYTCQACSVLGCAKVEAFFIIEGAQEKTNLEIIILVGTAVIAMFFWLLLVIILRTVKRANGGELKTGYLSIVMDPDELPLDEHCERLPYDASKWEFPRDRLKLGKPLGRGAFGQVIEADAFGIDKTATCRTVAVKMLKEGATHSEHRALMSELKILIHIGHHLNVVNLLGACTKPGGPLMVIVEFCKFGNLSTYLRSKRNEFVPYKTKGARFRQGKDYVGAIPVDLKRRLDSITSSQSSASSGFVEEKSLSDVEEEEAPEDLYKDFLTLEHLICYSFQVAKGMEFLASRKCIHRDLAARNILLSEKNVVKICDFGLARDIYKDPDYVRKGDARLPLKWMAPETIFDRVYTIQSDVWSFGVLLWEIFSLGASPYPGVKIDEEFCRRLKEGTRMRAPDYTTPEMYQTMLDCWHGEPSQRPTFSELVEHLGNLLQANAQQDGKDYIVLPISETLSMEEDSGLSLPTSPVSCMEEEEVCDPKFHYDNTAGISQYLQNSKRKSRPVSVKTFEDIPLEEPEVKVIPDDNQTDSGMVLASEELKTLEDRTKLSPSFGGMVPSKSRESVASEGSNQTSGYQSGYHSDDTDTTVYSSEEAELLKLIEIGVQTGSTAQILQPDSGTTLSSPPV
The target in another experiment is PDGFR-β (Homo sapiens, UniProt P09619). The experiment can be described thus: Kinase inhibition, whole-cell assay, PDGFR-β. Type of experiment: cell-based. The note with it: Table 3b; unit inferred; read-out: PDGFR kinase inhibition.
Sequence of PDGFR-β (P09619 33-1106, species assumed): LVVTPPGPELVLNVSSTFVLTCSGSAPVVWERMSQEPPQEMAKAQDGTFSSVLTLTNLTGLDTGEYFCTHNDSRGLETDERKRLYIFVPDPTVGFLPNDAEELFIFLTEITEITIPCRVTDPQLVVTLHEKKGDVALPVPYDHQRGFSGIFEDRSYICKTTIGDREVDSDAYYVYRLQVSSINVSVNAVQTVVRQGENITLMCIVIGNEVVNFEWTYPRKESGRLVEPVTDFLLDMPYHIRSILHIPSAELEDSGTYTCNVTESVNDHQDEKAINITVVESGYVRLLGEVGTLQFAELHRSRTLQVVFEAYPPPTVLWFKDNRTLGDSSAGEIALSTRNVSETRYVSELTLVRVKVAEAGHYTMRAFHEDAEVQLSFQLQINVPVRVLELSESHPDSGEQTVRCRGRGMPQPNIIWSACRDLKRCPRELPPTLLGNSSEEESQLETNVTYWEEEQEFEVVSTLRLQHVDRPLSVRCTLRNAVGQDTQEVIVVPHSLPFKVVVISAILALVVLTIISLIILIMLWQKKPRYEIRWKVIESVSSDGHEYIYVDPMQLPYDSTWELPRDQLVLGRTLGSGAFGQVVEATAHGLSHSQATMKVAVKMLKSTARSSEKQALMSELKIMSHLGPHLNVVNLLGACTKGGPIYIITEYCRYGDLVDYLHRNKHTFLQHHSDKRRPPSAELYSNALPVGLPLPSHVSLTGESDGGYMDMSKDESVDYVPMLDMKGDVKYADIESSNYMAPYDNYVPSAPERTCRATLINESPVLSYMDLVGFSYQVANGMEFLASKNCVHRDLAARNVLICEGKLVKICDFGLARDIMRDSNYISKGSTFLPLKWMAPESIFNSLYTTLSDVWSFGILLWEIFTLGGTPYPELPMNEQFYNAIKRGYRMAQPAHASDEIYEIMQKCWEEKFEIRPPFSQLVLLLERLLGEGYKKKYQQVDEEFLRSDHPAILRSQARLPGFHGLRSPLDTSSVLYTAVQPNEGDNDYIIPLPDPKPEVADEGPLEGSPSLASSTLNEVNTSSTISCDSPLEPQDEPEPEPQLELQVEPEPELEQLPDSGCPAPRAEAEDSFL
In another experiment the target is EGFR (Homo sapiens, UniProt P00533). The experiment can be described thus: Kinase inhibition, whole-cell assay, EGFR. The note with it: Table 3b; unit inferred; read-out: EGFR kinase inhibition. The experiment is classed as cell-based.
Sequence of EGFR (P00533 25-1210, species assumed): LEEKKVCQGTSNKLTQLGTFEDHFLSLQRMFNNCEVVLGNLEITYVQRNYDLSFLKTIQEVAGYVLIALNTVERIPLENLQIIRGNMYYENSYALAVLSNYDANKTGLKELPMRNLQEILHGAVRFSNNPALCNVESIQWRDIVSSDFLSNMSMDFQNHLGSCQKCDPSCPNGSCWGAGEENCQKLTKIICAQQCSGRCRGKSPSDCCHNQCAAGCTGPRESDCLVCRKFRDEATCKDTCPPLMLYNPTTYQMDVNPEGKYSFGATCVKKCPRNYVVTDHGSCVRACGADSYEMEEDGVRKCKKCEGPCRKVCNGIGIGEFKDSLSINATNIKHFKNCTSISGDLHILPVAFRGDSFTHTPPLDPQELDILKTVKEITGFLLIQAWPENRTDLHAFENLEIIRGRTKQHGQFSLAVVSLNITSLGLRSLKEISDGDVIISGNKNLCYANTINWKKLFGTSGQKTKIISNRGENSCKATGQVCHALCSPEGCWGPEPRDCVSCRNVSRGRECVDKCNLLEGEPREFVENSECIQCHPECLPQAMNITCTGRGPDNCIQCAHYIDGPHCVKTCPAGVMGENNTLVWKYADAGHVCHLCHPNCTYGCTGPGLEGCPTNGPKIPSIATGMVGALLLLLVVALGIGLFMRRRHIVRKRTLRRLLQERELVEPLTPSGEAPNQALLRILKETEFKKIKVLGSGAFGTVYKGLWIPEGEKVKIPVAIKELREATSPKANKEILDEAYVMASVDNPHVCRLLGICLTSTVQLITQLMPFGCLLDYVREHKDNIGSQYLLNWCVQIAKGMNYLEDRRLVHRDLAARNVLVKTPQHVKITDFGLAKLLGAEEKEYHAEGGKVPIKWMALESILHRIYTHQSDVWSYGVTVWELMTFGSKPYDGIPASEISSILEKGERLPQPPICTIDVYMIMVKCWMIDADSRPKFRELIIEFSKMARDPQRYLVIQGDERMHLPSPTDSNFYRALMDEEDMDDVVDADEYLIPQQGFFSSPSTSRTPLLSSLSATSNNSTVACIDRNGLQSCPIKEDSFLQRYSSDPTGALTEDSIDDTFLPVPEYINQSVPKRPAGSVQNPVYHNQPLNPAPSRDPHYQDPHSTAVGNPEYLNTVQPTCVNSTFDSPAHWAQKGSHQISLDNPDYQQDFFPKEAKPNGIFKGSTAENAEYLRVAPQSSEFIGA
A further experiment concerns U251. Description: U251 cytotoxicity. The experiment is classed as cell-based. The note with it: Homo sapiens, U-251; Table 3b; unit inferred.
The next experiment has as its system CAM. Description: CAM (gi50). The note with it: Table 3b; unit inferred.
The test system of the next experiment is A431. The experiment can be described thus: A431 cytotoxicity. The note with it: Homo sapiens, A-431, read-out: A431 cytotoxicity, Table 3b; unit inferred.
The mark [3] stands for this setting: Rattus norvegicus, A10, read-out: EC50 in A-10 cells (Concentration that causes 50% tubulin loss in A-10 cells), Table 4, Section II compounds.
Where [4] appears, read: Table 3a, unit inferred, read-out: EC50 for Microtubule Depolymerization in A · 10 Cells.
Where [5] appears, read: Rattus norvegicus, A10, Table 3a, unit inferred, read-out: EC50 for Microtubule Depolymerization in A · 10 Cells.

Each structure is given as a SMILES string. Where two headings read alike, the source gives them in different places.

Take `COc1ccc([C@H](C)N(C)c2nc(C)nc3c2CCC3)cc1` [Compound 10]: the EC50 in the experiment with A-10 cells (setting [3]) was > 10000 nM.

With `COc1ccc([C@@H](C)N(C)c2nc(C)nc3c2CCC3)cc1` [Compound 11], the EC50 with A-10 cells (setting [3]) was > 10000 nM.

On to `Cc1nc2ccc3ccc(CNc4ccc5c(c4)CN([C@@H](CCC(=O)O)C(=O)O)C5=O)cc3c2c(=O)[nH]1` [GW1843U89], for which the IC50 came out at 5.8 nM with KB (RFC/FRα/PCFT) (Table 11, read-out: IC50 RFC/FRα/PCFT KB) and 32 nM in the experiment with KB (RFC/FRα/PCFT) (with folic acid (+FA), read-out: IC50 RFC/FRα/PCFT KB (+FA)).

For the compound `Nc1nc(N)c2nc(CNc3ccc(C(=O)N[C@@H](CCCNC(=O)c4ccccc4C(=O)O)C(=O)O)cc3)cnc2n1` [PT523], the IC50 was 1.28 nM in the experiment on PC43-10 (RFC); 409 nM with RT16 (FRα) (Table 11, read-out: IC50 FRα RT16); > 1000 nM with RT16 (FRα) (with folic acid (+FA), read-out: IC50 FRα RT16 (+FA)).

In the case of `CNc1ccc(N(C)c2nc(C)nc3c2CCC3)cc1` [Section II compound 8], the IC50 was determined as 36.3 ± 3.3 nM with Parental SK-OV-3; 49.7 ± 7.9 nM in experiment [1]; 31 ± 1.6 nM in the experiment with Parental HeLa; 19.1 ± 3.9 nM in experiment [2] (Homo sapiens, HeLa, Table 7, read-out: IC50 ± SD β-III overexpressing HeLa). For the same compound, the “Rr*” value in [2] (relative resistance, β-III overexpressing HeLa vs parental HeLa) came to 0.6.

Regarding `COc1ccc(CN(C)c2nc(C)nc3c2CCC3)cc1` [Section II compound 12], in the experiment on A-10 cells (setting [3]), the EC50 was found to be 11300 nM.

With `COc1cccc2cc(N(C)c3nc(C)nc4ccn(C)c34)ccc12` [Table 3a 14], the IC50 with MDA-MB-435 cancer cells (unit inferred) was found to be 2000 nM. Besides, in the experiment with A-10 cells (setting [4]), the EC50 is > 10000 nM.

For the compound `COc1cccc2cc(N(C)c3nc(Cl)nc4ccn(C)c34)ccc12` [Table 3a 15], the IC50 with MDA-MB-435 cancer cells (unit inferred) was found to be 22.6 nM. For the same compound, the EC50 with A-10 cells (setting [4]) stood at 50 nM.

As to `COc1ccc(N(C)c2ncnc3ccn(C)c23)cc1` [Table 3a 17], in the experiment on MDA-MB-435 cancer cells (unit inferred), the IC50 is 13.4 ± 0.5 nM. Further, the EC50 in the experiment on A-10 cells (setting [4]) amounted to 27.5 nM.

Take `COc1ccc(N(C)c2nc(Cl)nc3ccn(C)c23)cc1` [Table 3a 19]: the IC50 at VEGFR2 was found to be 12.4 ± 1.2 nM; at PDGFR-β it was 4.2 ± 0.9 nM; at EGFR it was 6.3 ± 0.9 nM; in the experiment on MDA-MB-435 cancer cells (Homo sapiens, unit inferred) it was 1.3 nM; in the experiment on U251, 3.1 ± 0.4 nM; with A431, 2.1 ± 0.3 nM. Further, the EC50 in the experiment with A-10 cells (setting [5]) stood at 1.48 nM. Further, the 50% growth inhibitory concentration (GI50) (usually the concentration that inhibits growth by half) in the experiment with CAM is 9.3 ± 0.91 nM.

As to `COc1ccc2c(c1)CCCN2c1nc(Cl)nc2ccn(C)c12` [Table 3a 23], the IC50 against VEGFR2 amounted to 15.2 ± 2 nM; on PDGFR-β, 8.4 ± 0.8 nM; on EGFR it was 9 ± 0.9 nM; in the experiment on MDA-MB-435 cancer cells (Homo sapiens, unit inferred), 4.1 ± 0.1 nM; with U251, 3.8 ± 0.5 nM; with A431, 3 ± 0.3 nM. Also, the EC50 in the experiment with A-10 cells (setting [5]) was found to be 3.31 nM. In the experiment on CAM, this compound came in with a GI50 of 7.6 ± 1 nM.

With `CSc1ccc(N(C)c2nc(C)nc3ccn(C)c23)cc1` [Table 3a 26], the IC50 turned out to be 544 ± 77.2 nM at VEGFR2; 450 ± 53.1 nM at PDGFR-β; 54.8 ± 9.2 nM on EGFR; 6.2 nM in the experiment on MDA-MB-435 cancer cells (Homo sapiens, cells that print nM); 35.1 ± 6.3 nM in the experiment on U251; 18.8 ± 4.1 nM in the experiment on A431. The EC50 in the experiment on A-10 cells (Rattus norvegicus, A10, Table 3a, lines that print nM, read-out: EC50 for Microtubule Depolymerization in A · 10 Cells) came to 23 nM. Also, the GI50 in the experiment with CAM was found to be 363 ± 56.9 nM.

In the case of `CSc1ccc(N(C)c2nc(Cl)nc3ccn(C)c23)cc1` [Table 3a 27], the IC50 turned out to be 33.9 ± 3.9 nM against VEGFR2; 10.8 ± 1.6 nM on PDGFR-β; 16.4 ± 2.6 nM at EGFR; 3.6 ± 0.3 nM in the experiment on MDA-MB-435 cancer cells (Homo sapiens, unit inferred); 11.3 ± 1.8 nM in the experiment on U251; 8.2 ± 1.3 nM in the experiment on A431. Also, in the experiment with A-10 cells (setting [5]), the EC50 was 2.7 nM. In the experiment on CAM, this compound registered a GI50 of 45.2 ± 5.2 nM.

`CN(c1ccc(OC(F)(F)F)cc1)c1nc(Cl)nc2ccn(C)c12` [Table 3a 29]: the IC50 in the experiment with MDA-MB-435 cancer cells (Homo sapiens, unit inferred) amounted to 49.3 ± 1.1 nM. The EC50 with A-10 cells (setting [5]) was 139 nM.

These data come from patent publication US10239880B2, “Cyclopenta[d]pyrimidines and substituted cyclopenta[d]pyrimidines as antitubulin and microtubule targeting agents, monocyclic pyrimidines as tubulin inhibitors, and pyrrolopyrimidines as targeted antifolates and tubulin and multiple receptor tyrosine kinase inhibition and antitumor agents” (Duquesne University of the Holy Spirit, priority 2015, dated 2019).
